# Read-outs that look alike come from different tables or passages of the source.
# Assays:
# intracellular HIV = assay: Photoinactivation of intracellular HIV in RBC suspensions; format: cell-based, HIV-1; conditions: 80 μM TP; 200 μM DP; 20-percent hct RBCs in Erythrosol; 1.1 J/cm^2 light
# extracellular BVDV = format: cell-based
# extracellular VSV = format: cell-based, Vesicular Stomatitis Virus
# E. coli = assay: Bacterial photoinactivation in red cell suspensions; format: cell-based
# red cells [1] = conditions: n=10
# all tested viruses = format: cell-based
# extracellular HIV = assay: Photoinactivation of extracellular HIV in RBC suspensions; format: cell-based, HIV-1; conditions: 80 μM TP; 200 μM DP; 20-percent hct RBCs in Erythrosol; 1.1 J/cm^2 light
# P. fluorescens = format: cell-based
# Y. enterocolitica = assay: Bacterial photoinactivation in red cell suspensions; format: cell-based
# [2] = tested on: gram positive and gram negative organisms; format: cell-based
# S. liquefaciens = format: cell-based
# S. marcescens = format: cell-based
# S. aureus = assay: Bacterial photoinactivation in red cell suspensions; format: cell-based
# RBCs [3] = conditions: n = 4
# extracellular DHBV = assay: Photoinactivation of extracellular DHBV in RBC suspensions; format: cell-based; conditions: 10 μM TP; 200 μM DP; 20-percent hct RBCs in Erythrosol; 1.1 J/cm^2 light
# red cells [4] = tested on: red cells
# S. epidermidis = format: cell-based
# extracellular PRV = format: cell-based, Pseudorabies virus
# RBCs [5] = assay: Spectroscopic assay of TP binding to RBCs; conditions: 200 μM DP; 160 μM TP; 20-percent hct RBCs in Erythrosol
# red blood cells = conditions: cited from earlier work
# D. radiodurans = assay: Bacterial photoinactivation in red cell suspensions; format: cell-based; conditions: 160 μM compound 2; RBCs 20% hematocrit in Erythrosol; 2 min 8.9 mW/cm^2 red light
# intracellular VSV = format: cell-based, Vesicular Stomatitis Virus
# [6] = 100 μM TP, 200 μM DP and 1.1 J/cm^2 red light, 20% hct RBCs in Erythrosol, n = 4
# [7] = 160 μM compound 2, RBCs 20% hematocrit in Erythrosol, 2 min 8.9 mW/cm^2 red light
structure (smiles),measurement,setting,value
"Cc1cc(-c2ccc(N(C)C)cc2)cc(-c2ccc(N(C)C)cc2)[s+]1.[I-] [Compound 2, 2′,4′-bis(4-N,N-dimethylaminophenyl) 6′-methylthiopyrilium iodide]",log10 inactivation of intracellular HIV,intracellular HIV,6.2±0.1 log10
same,log10 inactivation of extracellular BVDV,extracellular BVDV,> 6 log10
same,log10 inactivation of extracellular VSV,extracellular VSV,> 8.4 log10
same,log10 inactivation,E. coli; [6],7.1 ± 0.5 log10
same,potassium in the supernatant,red cells [1],16.6 ± 4.2 mM
same,potassium released to the supernatant,red cells [1],38.4 ± 4.4 mM
same,inactivation of all tested viruses,all tested viruses,inactivated to the limit of assay detection
same,log10 inactivation of extracellular HIV,extracellular HIV,> 7.5 log10
same,log10 inactivation,P. fluorescens; n = 4,5.4 ± 1.0 log10
same,log10 inactivation,Y. enterocolitica; [6],5.9 ± 0.6 log10
same,log10 inactivation of 5 of 7 tested organisms,[2],> 6 log10
same,log10 inactivation of all tested organisms,[2],> 4 log10
same,log10 inactivation,S. liquefaciens; n = 4,>7.1 log10
same,log10 inactivation,S. marcescens; n = 4,6.2 ± 1.0 log10
same,log10 inactivation,S. aureus; [6],>6.3 log10
same,ATP level,RBCs [3],2.63±0.07 μmole/g Hb
same,morphology score,RBCs [3],94.5±1.5
same,log10 inactivation of extracellular DHBV,extracellular DHBV,> 5.8 log10
same,hemolysis following 42 day 1-6° C. storage,red cells [4]; n=10,0.29%
same,log10 inactivation,S. epidermidis; n = 4,>7.6 log10
same,log10 inactivation of extracellular PRV,extracellular PRV,> 6.3 log10
"OCCN(CCO)c1nc(N2CCCCC2)c2nc(N(CCO)CCO)nc(N3CCCCC3)c2n1 [dipyridamole, reference compound]",TP binding sites in RBCs blocked by DP,RBCs [5],approximately 36%
Cc1cc(=[N+](C)C)cc2sc3cc(N(C)C)cc(C)c3nc1-2.[Cl-] [dimethylmethylene blue],hemolysis,"red blood cells; dye and light, after 6 week refrigerated storage in ADSOL",roughly 25%
same,hemolysis,red blood cells; following 6 weeks of 1-6° C. storage in Erythrosol,about 2%
same,hemolysis,"red blood cells; six weeks of 1-6° C. storage in Erythrosol, RBCs pre-incubated with quinacrine",approximately 1.2%
"Cc1cc(-c2ccc(N(C)C)cc2)cc(-c2ccc(N(C)C)cc2)[s+]1 [Compound 2, 2′,4′-bis(4-N,N-dimethylaminophenyl) 6′-methylthiopyrilium iodide]",log10 inactivation of extracellular VSV,extracellular VSV,> 7 log10
same,Log10 VSV inact. (extracellular),extracellular VSV; 10 μM,1.3 log10
same,Log10 VSV inact. (extracellular),extracellular VSV; 20 μM,2.2 log10
same,Log10 VSV inact. (extracellular),extracellular VSV; 30 μM,2.7 log10
same,Log10 VSV inact. (extracellular),extracellular VSV; 60 μM,4.8 log10
same,Log10 VSV inact. (extracellular),extracellular VSV; 90 μM,5.7 log10
same,Log10 VSV inact. (extracellular),extracellular VSV; 160 μM,>7 log10
same,log10 inactivation,E. coli; [7],>7.9 log10
same,log10 inactivation,P. fluorescens,>7.7 log10
same,log10 inactivation,Y. enterocolitica; [7],>7.5 log10
same,bacteria remaining after inactivation (limit of detection),[2],< 1 CFU/mL
same,log10 inactivation,S. liquefaciens,>7.4 log10
same,log10 inactivation,D. radiodurans,>7.9 log10
same,log10 inactivation,S. marcescens,>6.9 log10
same,log10 inactivation,S. aureus; [7],>6.8 log10
same,log10 inactivation of intracellular VSV,intracellular VSV,4.0 log10
same,log10 VSV inact. (intracellular),intracellular VSV; 160 μM,>5 log10
same,hemolysis,red cells [4],< 1%
same,Hemolysis (%) (day 42),red cells [4]; 160 μM,0.45%
same,log10 inactivation,S. epidermidis,>7.9 log10
